Results reported in US8580965B2, “Substituted sulfonamide compounds” (Gruenenthal GmbH, priority 2006, dated 2013).

Legend:
[1] = biological target: T1, human B1R receptor (bradykinin 1 receptor) (Homo sapiens, UniProt P46663); assay: FLIPR Ca2+ assay (Fluo-4) on CHO K1 cells stably transfected with the human B1R gene; % activation and % inhibition at 10 μM; type: cell-based; conditions: CHO-K1, test substance 10 μM; CHO K1 hB1R cells; Ca2+ inflow after 0.5 nM Lys-Des-Arg9-bradykinin; read-out: B1R antagonism, human [10 μM] % inhibition
T1 construct: host or cells: CHO K1 cells (hB1R cells)
T1 sequence (P46663 1-353): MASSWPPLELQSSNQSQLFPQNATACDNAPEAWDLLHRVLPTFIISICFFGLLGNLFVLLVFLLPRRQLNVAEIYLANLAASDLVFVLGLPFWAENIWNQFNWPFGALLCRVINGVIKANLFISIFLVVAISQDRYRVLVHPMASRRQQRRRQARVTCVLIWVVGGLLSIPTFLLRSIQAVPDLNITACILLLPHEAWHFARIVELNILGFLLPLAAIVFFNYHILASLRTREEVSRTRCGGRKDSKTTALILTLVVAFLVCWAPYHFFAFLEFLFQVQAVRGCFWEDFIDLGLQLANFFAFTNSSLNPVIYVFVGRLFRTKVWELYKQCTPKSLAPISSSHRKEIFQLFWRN
Summary of the method: (§1)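 CHO K1 cells stably expressing human or rat B1R, Fluo-4 loaded, read by FLIPR (peak fluorescence). Compound at 10 µM first gives % activation versus agonist; after 10 min, agonist (human: 0.5 nM Lys-Des-Arg9-bradykinin; rat: 100 nM Des-Arg9-bradykinin) gives % inhibition relative to maximal inhibition.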

[2] = biological target: T2, B1R receptor of the rat (bradykinin 1 receptor) (Rattus norvegicus, UniProt P97583); assay: FLIPR Ca2+ assay (Fluo-4) on CHO K1 cells stably transfected with the B1R gene of the rat; % activation and % inhibition at 10 μM; type: cell-based; conditions: CHO-K1, test substance 10 μM; CHO K1 rB1R cells; Ca2+ inflow after 100 nM Des-Arg9-bradykinin; read-out: B1R antagonism, rat [10 μM] % inhibition
T2 construct: host or cells: CHO K1 cells (rB1R cells)
T2 sequence (P97583 1-337): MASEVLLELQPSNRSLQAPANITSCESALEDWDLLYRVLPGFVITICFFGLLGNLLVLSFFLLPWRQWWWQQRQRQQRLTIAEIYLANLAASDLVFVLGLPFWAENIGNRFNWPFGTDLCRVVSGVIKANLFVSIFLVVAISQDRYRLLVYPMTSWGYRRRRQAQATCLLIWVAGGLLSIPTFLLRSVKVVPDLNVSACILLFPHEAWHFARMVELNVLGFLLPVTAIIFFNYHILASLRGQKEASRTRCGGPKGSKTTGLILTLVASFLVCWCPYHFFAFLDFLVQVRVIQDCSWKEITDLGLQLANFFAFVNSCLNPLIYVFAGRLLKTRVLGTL
Summary of the method: as §1

| Structure (SMILES) | inhibition at 10 µM [1] [%] | inhibition at 10 µM [2] [%] |
| --- | --- | --- |
| Cc1cc(S(=O)(=O)N(C)CCOCC(=O)N2CCC(O)(c3cccc(C(F)(F)F)c3)CC2)c(C)cc1Cl [Example 154, 4-chloro-N-(2-(2-(4-hydroxy-4-(3-(trifluoromethyl)phenyl)piperidin-1-yl)-2-oxoethoxy)ethyl)-N,2,5-trimethylphenylsulfonamide] | 98.8 | 96.4 |
| O=C(COCC1CCCCN1S(=O)(=O)c1ccc(C(F)(F)F)cc1)N1CCC(O)(c2cccnc2)CC1 (centres unmarked) [Example 155, 1-(4-hydroxy-4-(pyridin-3-yl)piperidin-1-yl)-2-((1-(4-(trifluoromethyl)phenylsulfonyl)piperidin-2-yl)methoxy)ethanone] | 30.3 | 60.3 |
| O=C(COCC1CCCCN1S(=O)(=O)c1ccc(C(F)(F)F)cc1)N1CCC(O)(c2ccc(Cl)cc2)CC1 (centres unmarked) [Example 156, 1-(4-(4-chlorophenyl)-4-hydroxypiperidin-1-yl)-2-((1-(4-(trifluoromethyl)phenylsulfonyl)piperidin-2-yl)methoxy)ethanone] | 20.9 | 70.3 |
| Cc1cc(S(=O)(=O)N2CCCCC2COCC(=O)N2CCC(O)(c3cccnc3)CC2)c(C)cc1Cl (centres unmarked) [Example 157, 2-((1-(4-chloro-2,5-dimethylphenylsulfonyl)piperidin-2-yl)methoxy)-1-(4-hydroxy-4-(pyridin-3-yl)piperidin-1-yl)ethanone] | 77.1 | 101 |
| Cc1cc(S(=O)(=O)N2CCCCC2COCC(=O)N2CCC(O)(c3ccccc3)CC2)c(C)cc1Cl (centres unmarked) [Example 158, 2-((1-(4-chloro-2,5-dimethylphenylsulfonyl)piperidin-2-yl)methoxy)-1-(4-hydroxy-4-phenylpiperidin-1-yl)ethanone] | 44.9 | 105 |
| Cc1cc(S(=O)(=O)N2CCCCC2COCC(=O)N2CCC(O)(Cc3ccccc3)CC2)c(C)cc1Cl (centres unmarked) [Example 159, 1-(4-benzyl-4-hydroxypiperidin-1-yl)-2-((1-(4-chloro-2,5-dimethylphenylsulfonyl)piperidin-2-yl)methoxy)ethanone] | 38.5 | 97 |
| Cc1ccc(S(=O)(=O)N2CCCCC2COCC(=O)N2CCC(O)(c3cccnc3)CC2)cc1Cl (centres unmarked) [Example 161, 2-((1-(3-chloro-4-methylphenylsulfonyl)piperidin-2-yl)methoxy)-1-(4-hydroxy-4-(pyridin-3-yl)piperidin-1-yl)ethanone] | 78.5 | 80.8 |
| O=C(COCC1CCCCN1S(=O)(=O)c1c(Cl)cc(C(F)(F)F)cc1Cl)N1CCC(O)(c2ccccc2)CC1 (centres unmarked) [Example 162, 2-((1-(2,6-dichloro-4-(trifluoromethyl)phenylsulfonyl)piperidin-2-yl)methoxy)-1-(4-hydroxy-4-phenylpiperidin-1-yl)ethanone] | 24.6 | 105 |
| O=C(COCC1CCCCN1S(=O)(=O)c1c(Cl)cc(C(F)(F)F)cc1Cl)N1CCC(O)(Cc2ccccc2)CC1 (centres unmarked) [Example 163, 1-(4-benzyl-4-hydroxypiperidin-1-yl)-2-((1-(2,6-dichloro-4-(trifluoromethyl)phenylsulfonyl)piperidin-2-yl)methoxy)ethanone] | 46.1 | 101 |
| O=C(COCC1CCCCN1S(=O)(=O)c1c(Cl)cc(C(F)(F)F)cc1Cl)N1CCC(O)(c2cccc(C(F)(F)F)c2)CC1 (centres unmarked) [Example 164, 2-((1-(2,6-dichloro-4-(trifluoromethyl)phenylsulfonyl)piperidin-2-yl)methoxy)-1-(4-hydroxy-4-(3-(trifluoromethyl)phenyl)piperidin-1-yl)ethanone] | 36.4 | 103 |
| O=C(COCC1CCCCN1S(=O)(=O)c1c(Cl)cc(C(F)(F)F)cc1Cl)N1CCC(O)(c2ccc(Cl)c(C(F)(F)F)c2)CC1 (centres unmarked) [Example 165, 1-(4-(4-chloro-3-(trifluoromethyl)phenyl)-4-hydroxypiperidin-1-yl)-2-((1-(2,6-dichloro-4-(trifluoromethyl)phenylsulfonyl)piperidin-2-yl)methoxy)ethanone] | 2.63 | 104 |
| O=C(COCC1CCCN1S(=O)(=O)c1c(Cl)cc(C(F)(F)F)cc1Cl)N1CCC(O)(c2ccc(Cl)cc2)CC1 (centres unmarked) [Example 166, 1-(4-(4-chlorophenyl)-4-hydroxypiperidin-1-yl)-2-((1-(2,6-dichloro-4-(trifluoromethyl)phenylsulfonyl)pyrrolidin-2-yl)methoxy)ethanone] | 58.5 | 104 |
| O=C(COCC1CCCN1S(=O)(=O)c1c(Cl)cc(C(F)(F)F)cc1Cl)N1CCC(O)(c2ccc(Br)cc2)CC1 (centres unmarked) [Example 167, 1-(4-(4-bromophenyl)-4-hydroxypiperidin-1-yl)-2-((1-(2,6-dichloro-4-(trifluoromethyl)phenylsulfonyl)pyrrolidin-2-yl)methoxy)ethanone] | 41.5 | 104 |
| O=C(COCC1CCCN1S(=O)(=O)c1c(Cl)cc(C(F)(F)F)cc1Cl)N1CCC(O)(c2ccccc2)CC1 (centres unmarked) [Example 168, 2-((1-(2,6-dichloro-4-(trifluoromethyl)phenylsulfonyl)pyrrolidin-2-yl)methoxy)-1-(4-hydroxy-4-phenylpiperidin-1-yl)ethanone] | 33.1 | 104 |
| O=C(COCC1CCCN1S(=O)(=O)c1c(Cl)cc(C(F)(F)F)cc1Cl)N1CCC(O)(Cc2ccccc2)CC1 (centres unmarked) [Example 169, 1-(4-benzyl-4-hydroxypiperidin-1-yl)-2-((1-(2,6-dichloro-4-(trifluoromethyl)phenylsulfonyl)pyrrolidin-2-yl)methoxy)ethanone] | 14.6 | 79.4 |
| O=C(COCC1CCCN1S(=O)(=O)c1c(Cl)cc(C(F)(F)F)cc1Cl)N1CCC(O)(c2cccc(C(F)(F)F)c2)CC1 (centres unmarked) [Example 170, 2-((1-(2,6-dichloro-4-(trifluoromethyl)phenylsulfonyl)pyrrolidin-2-yl)methoxy)-1-(4-hydroxy-4-(3-(trifluoromethyl)phenyl)piperidin-1-yl)ethanone] | 25.7 | 103 |
| O=C(COCC1CCCN1S(=O)(=O)c1c(Cl)cc(C(F)(F)F)cc1Cl)N1CCC(O)(c2ccc(Cl)c(C(F)(F)F)c2)CC1 (centres unmarked) [Example 171, 1-(4-(4-chloro-3-(trifluoromethyl)phenyl)-4-hydroxypiperidin-1-yl)-2-((1-(2,6-dichloro-4-(trifluoromethyl)phenylsulfonyl)pyrrolidin-2-yl)methoxy)ethanone] | 0.56 | 104 |
| O=C(COCC1CCCCN1S(=O)(=O)c1ccccc1C(F)(F)F)N1CCC(O)(c2cccnc2)CC1 (centres unmarked) [Example 172, 1-(4-hydroxy-4-(pyridin-3-yl)piperidin-1-yl)-2-((1-(2-(trifluoromethyl)phenylsulfonyl)piperidin-2-yl)methoxy)ethanone] | 103 | 105 |
| O=C(COCC1CCCCN1S(=O)(=O)c1ccccc1C(F)(F)F)N1CCC(O)(c2ccc(Cl)cc2)CC1 (centres unmarked) [Example 173, 1-(4-(4-chlorophenyl)-4-hydroxypiperidin-1-yl)-2-((1-(2-(trifluoromethyl)phenylsulfonyl)piperidin-2-yl)methoxy)ethanone] | 103 | 104 |
| O=C(COCC1CCCCN1S(=O)(=O)c1ccccc1C(F)(F)F)N1CCC(O)(c2ccc(Br)cc2)CC1 (centres unmarked) [Example 174, 1-(4-(4-bromophenyl)-4-hydroxypiperidin-1-yl)-2-((1-(2-(trifluoromethyl)phenylsulfonyl)piperidin-2-yl)methoxy)ethanone] | 102 | 105 |
| O=C(COCC1CCCCN1S(=O)(=O)c1ccccc1C(F)(F)F)N1CCC(O)(c2ccccc2)CC1 (centres unmarked) [Example 175, 1-(4-hydroxy-4-phenylpiperidin-1-yl)-2-((1-(2-(trifluoromethyl)phenylsulfonyl)piperidin-2-yl)methoxy)ethanone] | 86 | 104 |
| O=C(COCC1CCCCN1S(=O)(=O)c1ccccc1C(F)(F)F)N1CCC(O)(Cc2ccccc2)CC1 (centres unmarked) [Example 176, 1-(4-benzyl-4-hydroxypiperidin-1-yl)-2-((1-(2-(trifluoromethyl)phenylsulfonyl)piperidin-2-yl)methoxy)ethanone] | 91 | 102 |
